Measurements reported in patent US20220401586A1, “CARBON QUANTUM DOTS AND USES THEREOF” (CNANO MEDICINE CORP., priority 2019, published 2022).
Structures can show the parent of a compound that is named as a salt. One block for each molecule: values may come before it.

Assays:
[1] = molecular target: T1, LAT1 (Homo sapiens, UniProt Q01650); assay: Flow cytometry: uptake rate of LAAM TC-CQDs after BCH pre-treatment; type: cell-based; conditions: across HeLa, A549, PANC-1, MCF-7, MDA-MB-231, MDA-MB-231 SP cells
T1 construct: we treated HeLa cells with an excess of leucine (Leu), phenylalanine (Phe), or glycine (Gly) prior to adding LAAM TC-CQDs; endogenous in cells; host or cells: HeLa (also A549, PANC-1, MCF-7, MDA-MB-231, MDA-MB-231 SP in the flow cytometry)
T1 sequence (Q01650 whole entry): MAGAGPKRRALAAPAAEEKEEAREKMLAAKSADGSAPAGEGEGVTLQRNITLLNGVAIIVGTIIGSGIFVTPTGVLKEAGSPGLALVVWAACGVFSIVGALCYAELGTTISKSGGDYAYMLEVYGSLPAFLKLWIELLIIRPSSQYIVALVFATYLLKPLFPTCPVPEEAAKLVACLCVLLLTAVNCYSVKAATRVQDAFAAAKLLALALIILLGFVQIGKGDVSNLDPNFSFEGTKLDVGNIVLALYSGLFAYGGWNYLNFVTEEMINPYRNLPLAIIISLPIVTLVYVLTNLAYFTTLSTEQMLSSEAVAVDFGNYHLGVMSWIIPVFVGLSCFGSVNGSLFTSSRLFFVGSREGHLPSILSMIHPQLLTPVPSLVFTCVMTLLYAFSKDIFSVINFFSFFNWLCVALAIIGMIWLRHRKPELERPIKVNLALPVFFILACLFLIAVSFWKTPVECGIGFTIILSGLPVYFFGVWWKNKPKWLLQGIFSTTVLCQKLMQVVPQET
T1 sequence (P08195 102-630 partner): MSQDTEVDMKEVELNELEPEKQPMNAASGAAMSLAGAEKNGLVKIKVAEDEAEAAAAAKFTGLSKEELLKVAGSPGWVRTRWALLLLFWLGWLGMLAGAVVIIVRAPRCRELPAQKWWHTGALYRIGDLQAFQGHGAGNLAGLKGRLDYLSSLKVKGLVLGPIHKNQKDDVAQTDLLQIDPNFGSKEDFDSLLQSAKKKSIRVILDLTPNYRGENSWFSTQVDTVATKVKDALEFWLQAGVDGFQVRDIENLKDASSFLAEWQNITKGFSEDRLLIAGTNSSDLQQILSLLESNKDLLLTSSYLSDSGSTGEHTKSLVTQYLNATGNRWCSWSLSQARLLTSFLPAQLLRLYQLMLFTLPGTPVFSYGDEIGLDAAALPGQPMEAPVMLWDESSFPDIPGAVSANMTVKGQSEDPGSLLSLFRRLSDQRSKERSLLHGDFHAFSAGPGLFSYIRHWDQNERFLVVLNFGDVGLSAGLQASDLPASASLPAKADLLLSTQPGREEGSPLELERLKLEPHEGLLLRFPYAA
Source text: (§1) To investigate the mechanism that accounts for the cellular uptake of LAAM TC-CQDs, we treated HeLa cells with an excess of leucine (Leu), phenylalanine (Phe), or glycine (Gly) prior to adding LAAM TC-CQDs. Except Gly, both Leu and Phe are known to be high-affinity substrates to LAT1^27. […] This hypothetical mechanism is supported by several lines of evidence.
Flow cytometry. MDA-MB-231 SP cells were sorted according to our previously reported methods^22. Briefly, cells harvested at about 85% confluence were resuspended in RPMI-1640 supplemented with 2% fetal bovine serum (FBS) at a density of 1×10^6 cells/mL and incubated with Hoechst 33342 at a concentration of 5 μg/mL at 37° C. After 90 min, the cells were suspended in cold PBS at a concentration of 1×10^6 cells/mL, filtered through a 40 μm cell strainer to remove cell aggregates, stained with 1 μg/mL propidium iodide (PI), and analyzed and sorted using a FACSDiva (Becton Dickinson, USA). […] The cells were washed 3 times with cold PBS, resuspended in […] of cold PBS, and analyzed by a FACScan flow cytometer (BD, Ann Arbor, Mich.). […] After 12 h, the cells were washed with fresh medium, trypsinized, resuspended in PBS with 0.5% FBS, and analyzed using a BD FACSCalibur (BD Biosciences, USA). Data were analyzed using FlowJo 7.6.

[2] = molecular target: T1, LAT1; assay: LCSM: effect of Leu, Phe, Gly or BCH pre-treatment on uptake of LAAM TC-CQDs; type: cell-based; conditions: HeLa cells, excess of the agent prior to adding LAAM TC-CQDs
Experimental: as §1
Confocal laser scanning microscope imaging. […] After 8 h, cells were washed with PBS twice, fixed with 4% polyformaldehyde for 30 min at room temperature, followed by addition of DAPI for cell nuclei staining. Finally, the slides were washed three times, fixed, sealed with cover glasses, and imaged with excitation/emission: 561/700 using a confocal laser scanning microscopy (Leica TCS-SP8, Germany). To determine the effects of Leu, Phe, Gly or BCH on CQD uptake, HeLa cells were placed and treated with Leu, Phe, Gly or BCH. Four hours later, LAAM TC-CQDs were added to cells. After an additional 8 h, the cells were washed, fixed, and imaged.

[3] = test system: HeLa tumors; assay: Therapeutic evaluation in mice bearing HeLa tumors; type: in vivo; conditions: for tumors fifteen days later: intravenous
Experimental: We assessed TPTC/TC-CQDs for cancer treatment using mice bearing HeLa tumors. […]
Therapeutic evaluation in tumor-bearing mice. HeLa cells were subcutaneously inoculated into female BALB/c mice. When the tumor volumes reached ˜100 mm^3, the mice were intravenously administered with, saline, TPTC or TPTC/TC-CQDs (n=5). Changes in tumor volume and body weight were monitored daily. The volume of the tumor was calculated according to the following formula: V=D×d^2/2 (where D and d are the longest and shortest diameters of tumor, respectively, measured using a vernier caliper). Relative tumor volumes were calculated as V/V0(V0 is the initial tumor volume when the treatment was started).

[4] = in vivo; conditions: BALB/c, mouse, iv
Experimental: We determined the pharmacokinetics of TPTC/TC-CQDs in mice bearing HeLa tumors. TPTC or TPTC/TC-CQDs were administered intravenously at a dose equivalent to 10 mg/kg TPTC, and the blood was collected at various time points. TPTC in the plasma was quantified by high performance liquid chromatography (HPLC). […] A second cohort of mice received the same treatment was subjected to characterization for biodistribution of TPTC based on TPTC fluorescence.
The same lipid composition was used in several FDA-approved liposomal formulations, including Doxil© 38. […] The blood was collected at various time points. TPTC in the plasma was quantified by high performance liquid chromatography (HPLC).

[5] = in vivo; conditions: BALB/c, mouse
Experimental: We repeated the characterization studies using A549 tumours. Experiments were carried out according to the same procedures as described above.

[6] = Toxicity evaluation in mice; type: in vivo
Experimental: Toxicity evaluation in mice. Female BALB/c mice were intravenously administered with TPTC (10 mg/kg, 0.05 mL per mice) or TPTC/TC-CQDs (10 mg/kg for TPTC, 0.05 mL per mice) (n=5). Mice treated with saline were used as controls. At selected time points, blood samples were collected in heparinized microhematocrit tubes and centrifuged at a speed of 3000 rpm for 10 min. At the end of the study, mice were euthanized. Major organs, including the heart, liver, spleen, kidney and lung were excised, fixed in formalin, and analyzed.

[7] = test system: HeLa cells; assay: Cellular toxicity test (CCK-8); type: cell-based, Human; conditions: concentration equivalent to 5 ug/mL TPTC
Experimental: (§2) Cellular toxicity tests. […] After 12 h, the cultured medium was removed, and washed with PBS. One hundred microliters of fresh medium containing 10 μL CCK-8 (Sigma) was added to each well. After 2 h incubation at 37° C., the absorbance at 450 nm was measured using a microplate reader.

[8] = test system: CCC-ESF-1 cells; assay: Cellular toxicity test (CCK-8); type: cell-based, Human; conditions: concentration equivalent to 5 ug/mL TPTC
Experimental: as §2

[9] = 10 mg/kg TPTC (or equivalent) at days 1, 4, 8, and 12

cellular uptake rate of LAAM TC-CQDs after pre-treatment with BCH [1]: ~20% | effect of pre-treatment on uptake of LAAM TC-CQDs [2]: dramatically reduces
SMILES: NC1(C(=O)O)CC2CCC1C2 (stereo not shown) [BCH, 2-aminobicyclo-(2,2,1)-heptane-2-carboxylic acid]

effect of pre-treatment on uptake of LAAM TC-CQDs [2]: significantly inhibited
SMILES: N[C@@H](Cc1ccccc1)C(=O)O [Phe, phenylalanine]

effect of pre-treatment on uptake of LAAM TC-CQDs [2]: not
SMILES: NCC(=O)O [Gly, glycine]

effect of pre-treatment on uptake of LAAM TC-CQDs [2]: significantly inhibited
SMILES: CC(C)C[C@H](N)C(=O)O [Leu, leucine]

SMILES: CC[C@@]1(O)C(=O)OCc2c1cc1n(c2=O)Cc2cc3c(CN(C)C)c(O)ccc3nc2-1 [TPTC, topotecan hydrochloride]
median survival ([3]; 2 mg/kg TPTC (or equivalent)): 30 days | survival [3, 9]: 40 days | tumors fifteen days later ([3]; 2 mg/kg TPTC (or equivalent) at days 1, 4, 8, and 12): continuously grew | tumors fifteen days later [3, 9]: continuously grew | half-life ([4]; 2 mg/kg): 5.4 min | half-life ([4]; 10 mg/kg): 5 min | half-life [5]: 5.9 min | H&E analysis of major organs [6]: obvious myocardial fiber rupture, diffuse ballooning degeneration of hepatocytes, pulmonary hyperemia, and focal tubular necrosis | body weight ([6]; throughout the study): weight loss was observed | toxicity to HeLa cells [7]: inhibited both cells at a comparable efficiency | toxicity to non-cancerous CCC-ESF-1 cells [8]: inhibited both cells at a comparable efficiency
